Laboratory results published in the kinase profiling compilation of Christmann-Franck et al. (2016).

What was measured:
Experiment in all cases: KINOMEscan competition binding
Conditions in all cases: compound 1.0 µM
[1] = target: JAK2 JH1 catalytic (human) (UniProt O60674)
FGFR2 (human) = FGFR2 (human) (UniProt P21802)
FER (human) = FER (human) (UniProt P16591)
MAP3K6 (human) = MAP3K6 (human) (UniProt O95382)
PTK2B (human) = PTK2B (human) (UniProt Q14289)
MAPKAPK2 (human) = MAPKAPK2 (human) (UniProt P49137)
SRPK3 (human) = SRPK3 (human) (UniProt Q9UPE1)
DCLK2 (human) = DCLK2 (human) (UniProt Q8N568)
DSTYK (human) = DSTYK (human) (UniProt Q6XUX3)
MYLK (human) = MYLK (human) (UniProt Q15746)
[2] = test system: EGFR (human), P00533 [G719C]
ITK (human) = ITK (human) (UniProt Q08881)
STK3 (human) = STK3 (human) (UniProt Q13188)
MAP3K5 (human) = MAP3K5 (human) (UniProt Q99683)
SRPK2 (human) = SRPK2 (human) (UniProt P78362)
MAP4K5 (human) = MAP4K5 (human) (UniProt Q9Y4K4)
[3] = test system: FGFR3 (human), P22607 [G697C]
STK4 (human) = STK4 (human) (UniProt Q13043)
MAP3K7 (human) = MAP3K7 (human) (UniProt O43318)
[4] = target: JAK1 JH2 pseudokinase (human) (UniProt P23458)
CSNK1E (human) = CSNK1E (human) (UniProt P49674)
MST4 (human) = MST4 (human) (UniProt Q9P289)
TAOK3 (human) = TAOK3 (human) (UniProt Q9H2K8)
SGK1 (human) = SGK1 (human) (UniProt O00141)
STK32C (human) = STK32C (human) (UniProt Q86UX6)
EPHB1 (human) = EPHB1 (human) (UniProt P54762)
RIOK3 (human) = RIOK3 (human) (UniProt O14730)
YSK4 (human) = YSK4 (human) (UniProt Q56UN5)
VRK2 (human) = VRK2 (human) (UniProt Q86Y07)
[5] = test system: FLT3 (human), P36888 [N841I]
IKBKE (human) = IKBKE (human) (UniProt Q14164)
NLK (human) = NLK (human) (UniProt Q9UBE8)
PRKCE (human) = PRKCE (human) (UniProt Q02156)
[6] = test system: KIT (human), P10721 [D816H]
[7] = test system: EGFR (human), P00533 [T790M/L858R]
MAPK1 (human) = MAPK1 (human) (UniProt P28482)
PLK1 (human) = PLK1 (human) (UniProt P53350)
EPHB2 (human) = EPHB2 (human) (UniProt P29323)
TAOK2 (human) = TAOK2 (human) (UniProt Q9UL54)

Chain of FGFR3 (human), P22607 [G697C] (P22607 whole entry G697C, looked up): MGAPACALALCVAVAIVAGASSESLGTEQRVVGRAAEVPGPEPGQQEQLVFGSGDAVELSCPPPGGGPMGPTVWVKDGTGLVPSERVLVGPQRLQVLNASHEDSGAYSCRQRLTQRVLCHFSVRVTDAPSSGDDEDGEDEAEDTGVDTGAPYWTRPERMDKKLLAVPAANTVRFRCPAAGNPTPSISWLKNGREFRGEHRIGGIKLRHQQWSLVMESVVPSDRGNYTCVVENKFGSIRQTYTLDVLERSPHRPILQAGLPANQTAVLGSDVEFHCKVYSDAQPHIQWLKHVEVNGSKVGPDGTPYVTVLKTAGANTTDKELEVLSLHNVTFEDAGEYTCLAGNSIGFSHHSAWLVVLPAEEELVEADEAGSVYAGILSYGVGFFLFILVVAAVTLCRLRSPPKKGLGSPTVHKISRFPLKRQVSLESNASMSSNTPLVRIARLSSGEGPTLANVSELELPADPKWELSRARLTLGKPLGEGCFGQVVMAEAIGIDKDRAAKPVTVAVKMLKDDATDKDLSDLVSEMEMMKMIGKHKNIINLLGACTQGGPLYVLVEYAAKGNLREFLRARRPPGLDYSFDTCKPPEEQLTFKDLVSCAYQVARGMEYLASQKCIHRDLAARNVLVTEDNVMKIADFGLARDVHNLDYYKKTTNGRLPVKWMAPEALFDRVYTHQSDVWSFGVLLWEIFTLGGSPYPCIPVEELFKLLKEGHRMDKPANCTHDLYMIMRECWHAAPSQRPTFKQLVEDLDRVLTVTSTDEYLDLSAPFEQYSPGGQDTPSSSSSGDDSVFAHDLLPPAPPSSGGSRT
Chain of CSNK1E (human) (P49674 whole entry, looked up): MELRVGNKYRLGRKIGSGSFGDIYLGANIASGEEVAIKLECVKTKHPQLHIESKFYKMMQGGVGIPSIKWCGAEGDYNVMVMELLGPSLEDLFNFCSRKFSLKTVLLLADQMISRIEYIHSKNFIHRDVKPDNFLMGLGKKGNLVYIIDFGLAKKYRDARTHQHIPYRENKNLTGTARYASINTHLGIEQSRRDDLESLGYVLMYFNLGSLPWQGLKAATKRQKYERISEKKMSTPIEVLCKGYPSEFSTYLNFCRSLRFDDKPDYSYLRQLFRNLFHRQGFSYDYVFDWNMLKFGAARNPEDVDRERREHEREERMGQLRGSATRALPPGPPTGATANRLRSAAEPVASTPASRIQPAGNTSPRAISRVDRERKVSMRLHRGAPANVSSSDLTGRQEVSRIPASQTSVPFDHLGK
Chain of SRPK3 (human) (Q9UPE1 whole entry, looked up): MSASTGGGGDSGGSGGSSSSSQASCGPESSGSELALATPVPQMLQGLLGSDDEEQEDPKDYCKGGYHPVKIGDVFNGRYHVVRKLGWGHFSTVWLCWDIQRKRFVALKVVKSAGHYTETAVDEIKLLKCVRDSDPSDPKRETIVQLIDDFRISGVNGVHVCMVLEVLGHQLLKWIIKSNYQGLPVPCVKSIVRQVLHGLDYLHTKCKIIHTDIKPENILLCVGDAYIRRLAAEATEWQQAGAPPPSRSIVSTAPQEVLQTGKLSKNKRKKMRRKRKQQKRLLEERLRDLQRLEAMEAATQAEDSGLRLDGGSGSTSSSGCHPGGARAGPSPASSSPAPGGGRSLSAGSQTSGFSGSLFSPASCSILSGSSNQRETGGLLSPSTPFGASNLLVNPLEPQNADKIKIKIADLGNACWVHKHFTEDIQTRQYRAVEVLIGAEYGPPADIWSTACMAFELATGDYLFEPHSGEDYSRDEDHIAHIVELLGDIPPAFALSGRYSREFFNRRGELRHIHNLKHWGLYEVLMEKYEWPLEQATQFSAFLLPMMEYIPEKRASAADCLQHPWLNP
Chain of STK4 (human) (Q13043 whole entry, looked up): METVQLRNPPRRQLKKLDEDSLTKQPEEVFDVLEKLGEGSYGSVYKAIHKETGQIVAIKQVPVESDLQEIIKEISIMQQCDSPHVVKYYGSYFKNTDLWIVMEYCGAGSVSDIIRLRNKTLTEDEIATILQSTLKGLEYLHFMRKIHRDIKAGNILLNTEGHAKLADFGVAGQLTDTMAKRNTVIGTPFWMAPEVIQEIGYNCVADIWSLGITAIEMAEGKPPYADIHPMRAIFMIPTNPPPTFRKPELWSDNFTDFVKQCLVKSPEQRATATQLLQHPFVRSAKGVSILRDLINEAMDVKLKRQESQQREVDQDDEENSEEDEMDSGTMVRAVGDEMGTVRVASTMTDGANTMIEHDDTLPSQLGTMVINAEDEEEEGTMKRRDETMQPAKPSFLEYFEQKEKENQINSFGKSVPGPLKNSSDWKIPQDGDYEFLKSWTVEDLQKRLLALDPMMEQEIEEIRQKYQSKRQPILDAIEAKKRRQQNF
Chain of SGK1 (human) (O00141 whole entry, looked up): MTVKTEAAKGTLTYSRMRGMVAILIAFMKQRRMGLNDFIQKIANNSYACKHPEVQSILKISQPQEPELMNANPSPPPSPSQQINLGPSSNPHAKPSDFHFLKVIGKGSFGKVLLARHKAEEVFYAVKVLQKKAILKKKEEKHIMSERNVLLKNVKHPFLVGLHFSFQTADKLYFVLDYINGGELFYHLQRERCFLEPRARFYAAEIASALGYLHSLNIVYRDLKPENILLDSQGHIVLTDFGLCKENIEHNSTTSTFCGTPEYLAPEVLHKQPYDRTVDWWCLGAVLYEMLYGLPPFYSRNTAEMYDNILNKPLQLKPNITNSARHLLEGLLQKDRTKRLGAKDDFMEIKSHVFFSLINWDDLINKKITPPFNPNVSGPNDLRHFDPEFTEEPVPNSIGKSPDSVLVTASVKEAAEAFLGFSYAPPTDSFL
Chain of DCLK2 (human) (Q8N568 whole entry, looked up): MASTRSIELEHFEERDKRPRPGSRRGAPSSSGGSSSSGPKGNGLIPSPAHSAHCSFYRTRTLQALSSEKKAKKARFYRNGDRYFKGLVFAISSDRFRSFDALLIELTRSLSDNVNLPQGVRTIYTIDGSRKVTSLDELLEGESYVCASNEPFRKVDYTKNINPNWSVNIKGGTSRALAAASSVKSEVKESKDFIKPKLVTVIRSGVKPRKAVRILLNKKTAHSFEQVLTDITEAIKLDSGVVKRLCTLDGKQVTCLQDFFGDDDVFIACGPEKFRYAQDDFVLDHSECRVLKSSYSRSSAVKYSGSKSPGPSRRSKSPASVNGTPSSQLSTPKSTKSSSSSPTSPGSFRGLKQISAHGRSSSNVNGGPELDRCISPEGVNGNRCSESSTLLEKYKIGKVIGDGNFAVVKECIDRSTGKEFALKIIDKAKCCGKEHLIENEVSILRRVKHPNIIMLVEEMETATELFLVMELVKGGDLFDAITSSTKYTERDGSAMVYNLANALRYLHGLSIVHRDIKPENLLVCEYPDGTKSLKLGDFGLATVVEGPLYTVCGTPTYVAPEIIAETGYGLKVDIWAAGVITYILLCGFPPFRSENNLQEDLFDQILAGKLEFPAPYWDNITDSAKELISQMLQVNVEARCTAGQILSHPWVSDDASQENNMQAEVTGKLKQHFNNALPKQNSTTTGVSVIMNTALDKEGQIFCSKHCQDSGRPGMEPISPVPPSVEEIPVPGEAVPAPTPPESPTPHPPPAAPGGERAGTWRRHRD
Chain of KIT (human), P10721 [D816H] (P10721 whole entry D816H, looked up): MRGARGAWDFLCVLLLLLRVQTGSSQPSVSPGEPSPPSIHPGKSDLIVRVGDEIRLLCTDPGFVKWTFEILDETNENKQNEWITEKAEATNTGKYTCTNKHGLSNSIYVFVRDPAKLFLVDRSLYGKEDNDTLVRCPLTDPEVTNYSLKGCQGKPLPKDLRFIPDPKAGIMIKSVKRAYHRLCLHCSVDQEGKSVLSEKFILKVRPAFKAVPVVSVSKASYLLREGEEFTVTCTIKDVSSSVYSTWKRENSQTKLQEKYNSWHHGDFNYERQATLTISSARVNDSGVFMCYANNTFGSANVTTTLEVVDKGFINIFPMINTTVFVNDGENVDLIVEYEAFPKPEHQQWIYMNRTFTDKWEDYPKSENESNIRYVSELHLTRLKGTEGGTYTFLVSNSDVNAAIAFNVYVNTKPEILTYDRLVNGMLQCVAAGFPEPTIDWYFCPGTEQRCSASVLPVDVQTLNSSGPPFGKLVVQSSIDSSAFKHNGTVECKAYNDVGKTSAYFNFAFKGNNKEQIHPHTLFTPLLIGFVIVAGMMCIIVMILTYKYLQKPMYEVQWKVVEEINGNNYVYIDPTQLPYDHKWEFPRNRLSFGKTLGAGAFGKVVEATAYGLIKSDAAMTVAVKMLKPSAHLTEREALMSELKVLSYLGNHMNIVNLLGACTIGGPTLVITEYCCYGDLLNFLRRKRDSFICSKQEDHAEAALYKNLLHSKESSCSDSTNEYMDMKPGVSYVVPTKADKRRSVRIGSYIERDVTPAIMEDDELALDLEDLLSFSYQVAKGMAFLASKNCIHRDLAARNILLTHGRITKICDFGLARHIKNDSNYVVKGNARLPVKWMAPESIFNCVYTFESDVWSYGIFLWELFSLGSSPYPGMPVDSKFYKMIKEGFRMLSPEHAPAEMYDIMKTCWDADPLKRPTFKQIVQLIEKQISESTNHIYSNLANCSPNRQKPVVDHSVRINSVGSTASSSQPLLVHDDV
Chain of RIOK3 (human) (O14730 whole entry, looked up): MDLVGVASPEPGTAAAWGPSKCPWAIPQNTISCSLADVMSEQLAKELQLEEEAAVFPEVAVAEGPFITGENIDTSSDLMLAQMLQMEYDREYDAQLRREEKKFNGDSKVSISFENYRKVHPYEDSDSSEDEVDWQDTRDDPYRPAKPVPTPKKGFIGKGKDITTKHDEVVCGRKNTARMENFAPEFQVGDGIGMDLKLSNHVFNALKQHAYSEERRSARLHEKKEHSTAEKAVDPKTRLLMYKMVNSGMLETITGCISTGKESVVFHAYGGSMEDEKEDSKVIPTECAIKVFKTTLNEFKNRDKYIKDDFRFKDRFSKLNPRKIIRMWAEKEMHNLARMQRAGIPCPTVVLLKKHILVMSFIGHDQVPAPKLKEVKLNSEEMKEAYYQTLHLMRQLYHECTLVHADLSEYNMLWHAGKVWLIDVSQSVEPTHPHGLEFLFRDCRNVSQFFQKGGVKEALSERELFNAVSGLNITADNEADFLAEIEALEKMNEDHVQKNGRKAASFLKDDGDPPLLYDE

CNc1nc(Nc2ccc(C(=O)N3CCOCC3)cc2OC)ncc1Cl
kinase still bound, per cent of control [1]: 100%
kinase still bound, per cent of control (FGFR2 (human)): 100%
kinase still bound, per cent of control (FER (human)): 100%
kinase still bound, per cent of control (MAP3K6 (human)): 100%
kinase still bound, per cent of control (PTK2B (human)): 82%
kinase still bound, per cent of control (MAPKAPK2 (human)): 95%
kinase still bound, per cent of control (SRPK3 (human)): 64%
kinase still bound, per cent of control (DCLK2 (human)): 100%
kinase still bound, per cent of control (DSTYK (human)): 100%
residual activity (MYLK (human)): 75%
kinase still bound, per cent of control [2]: 100%
kinase still bound, per cent of control (ITK (human)): 100%
kinase still bound, per cent of control (STK3 (human)): 76%
kinase still bound, per cent of control (MAP3K5 (human)): 100%
kinase still bound, per cent of control (SRPK2 (human)): 84%
kinase still bound, per cent of control (MAP4K5 (human)): 73%
kinase still bound, per cent of control [3]: 100%
kinase still bound, per cent of control (STK4 (human)): 100%
kinase still bound, per cent of control (MAP3K7 (human)): 79%
kinase still bound, per cent of control [4]: 90%
kinase still bound, per cent of control (CSNK1E (human)): 100%
kinase still bound, per cent of control (MST4 (human)): 100%
kinase still bound, per cent of control (TAOK3 (human)): 100%
kinase still bound, per cent of control (SGK1 (human)): 82%
kinase still bound, per cent of control (STK32C (human)): 100%
kinase still bound, per cent of control (EPHB1 (human)): 100%
kinase still bound, per cent of control (RIOK3 (human)): 87%
kinase still bound, per cent of control (YSK4 (human)): 44%
kinase still bound, per cent of control (VRK2 (human)): 95%
kinase still bound, per cent of control [5]: 73%
kinase still bound, per cent of control (IKBKE (human)): 86%
kinase still bound, per cent of control (NLK (human)): 100%
kinase still bound, per cent of control (PRKCE (human)): 86%
kinase still bound, per cent of control [6]: 100%
kinase still bound, per cent of control [7]: 100%
kinase still bound, per cent of control (MAPK1 (human)): 100%
kinase still bound, per cent of control (PLK1 (human)): 100%
kinase still bound, per cent of control (EPHB2 (human)): 100%
kinase still bound, per cent of control (TAOK2 (human)): 88%
